{"source": "the supplement of paper PMC9663587", "assay_in_all_cases": "increase in dead-cell fraction, 72 h; higher = more death;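 also: breast cancer cell lines in 384-well plates, stained with Hoechst plus LIVE/DEAD far red dye and imaged, cells above an LDR intensity threshold counted dead, Hoechst-negative corpses included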", "key": {"Neratinib/HKI272": {"compound": "CCOc1cc2ncc(C#N)c(Nc3ccc(OCc4ccccn4)c(Cl)c3)c2cc1NC(=O)/C=C/CN(C)C [Neratinib/HKI272]"}, "[1]": {"compound": "CCc1cnn2c(NCc3ccc[n+]([O-])c3)cc(N3CCCC[C@H]3CCO)nc12"}, "LEE011/Ribociclib": {"compound": "CN(C)C(=O)c1cc2cnc(Nc3ccc(N4CCNCC4)cn3)nc2n1C1CCCC1 [LEE011/Ribociclib]"}, "THZ531": {"compound": "CN(C)C/C=C/C(=O)Nc1ccc(C(=O)N2CCC[C@@H](Nc3ncc(Cl)c(-c4c[nH]c5ccccc45)n3)C2)cc1 [THZ531]"}, "THZ1": {"compound": "CN(C)C/C=C/C(=O)Nc1ccc(C(=O)Nc2cccc(Nc3ncc(Cl)c(-c4c[nH]c5ccccc45)n3)c2)cc1 [THZ1]"}, "Flavopiridol": {"compound": "CN1CC[C@H](c2c(O)cc(O)c3c(=O)cc(-c4ccccc4Cl)oc23)[C@H](O)C1 [Flavopiridol]"}}}
{"cell line": "MDAMB231", "values": [{"measurement": "increase in dead-cell fraction", "setting": "Neratinib/HKI272; 0.3162 µM", "value": 0.0175}, {"measurement": "increase in dead-cell fraction", "setting": "Neratinib/HKI272; 1 µM", "value": 0.0509}, {"measurement": "increase in dead-cell fraction", "setting": "Neratinib/HKI272; 3.162 µM", "value": 0.378}, {"measurement": "increase in dead-cell fraction", "setting": "[1]; 0.0001 µM", "value": 0.0051}, {"measurement": "increase in dead-cell fraction", "setting": "[1]; 0.0003162 µM", "value": -0.0006}, {"measurement": "increase in dead-cell fraction", "setting": "[1]; 0.001 µM", "value": 0.0055}, {"measurement": "increase in dead-cell fraction", "setting": "[1]; 0.003162 µM", "value": -0.0028}, {"measurement": "increase in dead-cell fraction", "setting": "[1]; 0.01 µM", "value": 0.0529}, {"measurement": "increase in dead-cell fraction", "setting": "[1]; 0.03162 µM", "value": 0.459}, {"measurement": "increase in dead-cell fraction", "setting": "[1]; 0.1 µM", "value": 0.573}, {"measurement": "increase in dead-cell fraction", "setting": "[1]; 0.3162 µM", "value": 0.582}, {"measurement": "increase in dead-cell fraction", "setting": "[1]; 1 µM", "value": 0.618}, {"measurement": "increase in dead-cell fraction", "setting": "LEE011/Ribociclib; 0.001 µM", "value": -0.0007}, {"measurement": "increase in dead-cell fraction", "setting": "LEE011/Ribociclib; 0.003162 µM", "value": -0.0028}, {"measurement": "increase in dead-cell fraction", "setting": "LEE011/Ribociclib; 0.01 µM", "value": 0.0009}, {"measurement": "increase in dead-cell fraction", "setting": "LEE011/Ribociclib; 0.03162 µM", "value": -0.0021}, {"measurement": "increase in dead-cell fraction", "setting": "LEE011/Ribociclib; 0.1 µM", "value": 0.0045}, {"measurement": "increase in dead-cell fraction", "setting": "LEE011/Ribociclib; 0.3162 µM", "value": 0.005}, {"measurement": "increase in dead-cell fraction", "setting": "LEE011/Ribociclib; 1 µM", "value": 0.0045}, {"measurement": "increase in dead-cell fraction", "setting": "LEE011/Ribociclib; 3.162 µM", "value": 0.0025}, {"measurement": "increase in dead-cell fraction", "setting": "LEE011/Ribociclib; 10 µM", "value": 0.014}, {"measurement": "increase in dead-cell fraction", "setting": "THZ531; 0.0001 µM", "value": -0.0027}, {"measurement": "increase in dead-cell fraction", "setting": "THZ531; 0.0003162 µM", "value": -0.0002}, {"measurement": "increase in dead-cell fraction", "setting": "THZ531; 0.001 µM", "value": 0.002}, {"measurement": "increase in dead-cell fraction", "setting": "THZ531; 0.003162 µM", "value": -0.0005}, {"measurement": "increase in dead-cell fraction", "setting": "THZ531; 0.01 µM", "value": -0.0004}, {"measurement": "increase in dead-cell fraction", "setting": "THZ531; 0.03162 µM", "value": 0.0008}, {"measurement": "increase in dead-cell fraction", "setting": "THZ531; 0.1 µM", "value": 0.0103}, {"measurement": "increase in dead-cell fraction", "setting": "THZ531; 0.3162 µM", "value": 0.0403}, {"measurement": "increase in dead-cell fraction", "setting": "THZ531; 1 µM", "value": 0.224}, {"measurement": "increase in dead-cell fraction", "setting": "THZ1; 0.0001 µM", "value": -0.0006}, {"measurement": "increase in dead-cell fraction", "setting": "THZ1; 0.0003162 µM", "value": 0.0015}, {"measurement": "increase in dead-cell fraction", "setting": "THZ1; 0.001 µM", "value": 0.0027}, {"measurement": "increase in dead-cell fraction", "setting": "THZ1; 0.003162 µM", "value": 0.0007}, {"measurement": "increase in dead-cell fraction", "setting": "THZ1; 0.01 µM", "value": -0.0012}, {"measurement": "increase in dead-cell fraction", "setting": "THZ1; 0.03162 µM", "value": 0.0033}, {"measurement": "increase in dead-cell fraction", "setting": "THZ1; 0.1 µM", "value": 0.0231}, {"measurement": "increase in dead-cell fraction", "setting": "THZ1; 0.3162 µM", "value": 0.0712}, {"measurement": "increase in dead-cell fraction", "setting": "THZ1; 1 µM", "value": 0.363}, {"measurement": "increase in dead-cell fraction", "setting": "Flavopiridol; 0.0001 µM", "value": -0.0026}, {"measurement": "increase in dead-cell fraction", "setting": "Flavopiridol; 0.0003162 µM", "value": -0.0012}, {"measurement": "increase in dead-cell fraction", "setting": "Flavopiridol; 0.001 µM", "value": 0.002}, {"measurement": "increase in dead-cell fraction", "setting": "Flavopiridol; 0.003162 µM", "value": 0.0006}, {"measurement": "increase in dead-cell fraction", "setting": "Flavopiridol; 0.01 µM", "value": -0.0004}, {"measurement": "increase in dead-cell fraction", "setting": "Flavopiridol; 0.03162 µM", "value": -0.0008}, {"measurement": "increase in dead-cell fraction", "setting": "Flavopiridol; 0.1 µM", "value": 0.0005}, {"measurement": "increase in dead-cell fraction", "setting": "Flavopiridol; 0.3162 µM", "value": 0.0405}, {"measurement": "increase in dead-cell fraction", "setting": "Flavopiridol; 1 µM", "value": 0.485}]}
